Source: patent US20230203059A1, “MACROCYCLIC JAK INHIBITOR AND USES THEREOF” (Biopolar Hongye (Guangdong) Pharmaceutical Co. Ltd., priority 2020, published 2023)

Key:
Assay type in all cases: biochemical
[1] = molecular target: JAK2 (Homo sapiens, UniProt O60674); assay: JAK kinase activity, homogeneous time-resolved fluorescence (JAK2 reaction system); details: ATP 2 μM, JAK2 protein 0.01 ng/μL
Description: (§1) The activity measurement method of JAK kinase was to use homogeneous time-resolved fluorescence technique. The reaction was performed in 384 shallow well plates with a total reaction volume of 10 μL. The mixture of kinase protein, compound, ATP and substrate was carried out in a reaction buffer of 50 mM Hepes (pH7.0), NaN3 0.02%, BSA 0.01%, 0.1 mM Orthocanadate, 5 mM MgCl2, and 1 mM DTT. After reacting for 1 hour, an antibody capable of recognizing substrate phosphorylation, dye XL-615 and detection buffer (Cisbio) containing EDTA were added to the system. The reaction signal of kinase was detected by PE company's porous plate detector. The parameter settings were excitation light at 320 nm, emission light at 615 nm and 665 nm. The activity of JAK is indirectly reflected by the signal ratio of 665 nm and 615 nm. In the reaction, the background well without enzyme and the total enzyme activity well without compound were set.
(§2) The IC50 value of the compound inhibiting protein was obtained by the formula: Y=100/(1+10^((Log IC50−X)*HillSlope)). In JAK1 reaction system, the concentration of ATP was 2 μM, and the concentration of JAK1 protein was 0.2 ng/μL.
In JAK2 reaction system, the concentration of ATP was 2 μM, and the concentration of JAK2 protein was 0.01 ng/μL.

[2] = molecular target: JAK1 (Homo sapiens, UniProt P23458); assay: JAK kinase activity, homogeneous time-resolved fluorescence (JAK1 reaction system); details: ATP 2 μM, JAK1 protein 0.2 ng/μL; read-out: JAK 1 activity
Description: as §1, §2

[3] = molecular target: TYK2 (Homo sapiens, UniProt P29597); assay: JAK kinase activity, homogeneous time-resolved fluorescence (TYK2 reaction system); details: ATP 2 μM, TYK2 protein 0.2 ng/μL; read-out: TYK 2 activity
Description: as §1, §2
In TYK2 reaction system, the concentration of ATP was 2 μM, and the concentration of TYK2 protein was 0.2 ng/μL.

[4] = molecular target: T1, JAK3 (Homo sapiens, UniProt P52333); assay: JAK kinase activity, homogeneous time-resolved fluorescence (JAK3 reaction system); details: ATP 2 μM, JAK3 protein 0.04 ng/μL; read-out: JAK 3 activity
T1 sequence (P52333 1-1124): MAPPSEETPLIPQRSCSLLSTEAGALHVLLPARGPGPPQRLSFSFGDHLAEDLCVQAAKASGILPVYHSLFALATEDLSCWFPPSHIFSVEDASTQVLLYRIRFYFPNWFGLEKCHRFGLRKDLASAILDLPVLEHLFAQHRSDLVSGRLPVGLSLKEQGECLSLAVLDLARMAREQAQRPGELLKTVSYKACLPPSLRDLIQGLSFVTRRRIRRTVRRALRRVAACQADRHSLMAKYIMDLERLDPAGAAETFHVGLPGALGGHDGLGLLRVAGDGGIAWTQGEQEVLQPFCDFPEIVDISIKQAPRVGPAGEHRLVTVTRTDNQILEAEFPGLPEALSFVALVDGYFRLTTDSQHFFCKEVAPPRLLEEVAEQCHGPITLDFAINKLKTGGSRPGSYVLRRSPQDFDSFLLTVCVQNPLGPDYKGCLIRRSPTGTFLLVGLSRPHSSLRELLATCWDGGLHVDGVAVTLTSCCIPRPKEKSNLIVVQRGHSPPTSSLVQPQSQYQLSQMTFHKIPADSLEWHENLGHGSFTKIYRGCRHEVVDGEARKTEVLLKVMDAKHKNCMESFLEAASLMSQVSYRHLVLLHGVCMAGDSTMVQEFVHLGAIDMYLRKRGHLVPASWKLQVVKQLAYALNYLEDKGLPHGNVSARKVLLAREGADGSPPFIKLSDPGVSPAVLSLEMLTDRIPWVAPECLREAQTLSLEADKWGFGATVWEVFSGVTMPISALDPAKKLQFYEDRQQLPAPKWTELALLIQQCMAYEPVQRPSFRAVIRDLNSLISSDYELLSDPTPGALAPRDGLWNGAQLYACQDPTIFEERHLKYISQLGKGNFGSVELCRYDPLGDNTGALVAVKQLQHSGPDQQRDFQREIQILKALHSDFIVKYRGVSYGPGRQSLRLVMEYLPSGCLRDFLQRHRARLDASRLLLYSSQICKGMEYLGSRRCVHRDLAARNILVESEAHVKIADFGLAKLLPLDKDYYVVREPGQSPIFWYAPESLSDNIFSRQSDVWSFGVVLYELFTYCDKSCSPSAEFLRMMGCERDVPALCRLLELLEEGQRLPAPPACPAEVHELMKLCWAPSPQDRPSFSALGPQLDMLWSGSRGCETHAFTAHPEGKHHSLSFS
Description: as §1, with “The reaction was performed in 384 shallow well plates with a total reaction volume of 10 μL.” left out, “After reacting for 1 hour, an antibody capable of recognizing substrate phosphorylation, dye XL-615 and detection buffer (Cisbio) containing EDTA were added to the system.” left out, “set. […]” for “set.”
In JAK3 reaction system, the concentration of ATP was 2 μM, and the concentration of JAK3 protein was 0.04 ng/μL.

JAK1, sequence (P23458 whole entry): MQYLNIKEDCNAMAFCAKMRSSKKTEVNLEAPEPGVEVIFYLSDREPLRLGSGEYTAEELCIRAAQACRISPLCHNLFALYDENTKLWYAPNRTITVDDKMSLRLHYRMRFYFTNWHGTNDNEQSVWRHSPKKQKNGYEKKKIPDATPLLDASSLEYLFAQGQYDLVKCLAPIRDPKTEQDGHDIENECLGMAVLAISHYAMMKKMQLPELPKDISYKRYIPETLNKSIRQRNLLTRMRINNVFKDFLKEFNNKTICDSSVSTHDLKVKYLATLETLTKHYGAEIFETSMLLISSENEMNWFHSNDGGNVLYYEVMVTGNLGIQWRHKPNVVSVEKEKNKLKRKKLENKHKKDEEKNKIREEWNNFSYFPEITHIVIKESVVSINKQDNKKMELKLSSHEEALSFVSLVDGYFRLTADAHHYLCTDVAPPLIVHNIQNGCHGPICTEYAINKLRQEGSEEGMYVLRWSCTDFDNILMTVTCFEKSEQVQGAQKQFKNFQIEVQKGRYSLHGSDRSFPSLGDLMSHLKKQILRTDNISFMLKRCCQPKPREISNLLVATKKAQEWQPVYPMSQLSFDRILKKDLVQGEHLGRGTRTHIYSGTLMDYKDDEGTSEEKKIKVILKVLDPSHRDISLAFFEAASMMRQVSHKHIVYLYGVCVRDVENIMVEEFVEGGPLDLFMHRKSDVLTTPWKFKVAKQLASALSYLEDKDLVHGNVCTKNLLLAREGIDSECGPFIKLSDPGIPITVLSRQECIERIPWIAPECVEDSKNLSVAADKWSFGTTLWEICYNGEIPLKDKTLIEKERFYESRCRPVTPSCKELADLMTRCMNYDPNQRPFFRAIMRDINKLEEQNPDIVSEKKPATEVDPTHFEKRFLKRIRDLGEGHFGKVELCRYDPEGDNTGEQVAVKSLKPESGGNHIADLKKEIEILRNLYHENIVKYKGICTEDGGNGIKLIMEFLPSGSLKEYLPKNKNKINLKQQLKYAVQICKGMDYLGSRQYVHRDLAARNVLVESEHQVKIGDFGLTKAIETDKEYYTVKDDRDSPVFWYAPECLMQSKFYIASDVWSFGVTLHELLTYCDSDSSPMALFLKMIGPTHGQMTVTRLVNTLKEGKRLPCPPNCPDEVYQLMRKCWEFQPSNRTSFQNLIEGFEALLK
TYK2, sequence (P29597 whole entry): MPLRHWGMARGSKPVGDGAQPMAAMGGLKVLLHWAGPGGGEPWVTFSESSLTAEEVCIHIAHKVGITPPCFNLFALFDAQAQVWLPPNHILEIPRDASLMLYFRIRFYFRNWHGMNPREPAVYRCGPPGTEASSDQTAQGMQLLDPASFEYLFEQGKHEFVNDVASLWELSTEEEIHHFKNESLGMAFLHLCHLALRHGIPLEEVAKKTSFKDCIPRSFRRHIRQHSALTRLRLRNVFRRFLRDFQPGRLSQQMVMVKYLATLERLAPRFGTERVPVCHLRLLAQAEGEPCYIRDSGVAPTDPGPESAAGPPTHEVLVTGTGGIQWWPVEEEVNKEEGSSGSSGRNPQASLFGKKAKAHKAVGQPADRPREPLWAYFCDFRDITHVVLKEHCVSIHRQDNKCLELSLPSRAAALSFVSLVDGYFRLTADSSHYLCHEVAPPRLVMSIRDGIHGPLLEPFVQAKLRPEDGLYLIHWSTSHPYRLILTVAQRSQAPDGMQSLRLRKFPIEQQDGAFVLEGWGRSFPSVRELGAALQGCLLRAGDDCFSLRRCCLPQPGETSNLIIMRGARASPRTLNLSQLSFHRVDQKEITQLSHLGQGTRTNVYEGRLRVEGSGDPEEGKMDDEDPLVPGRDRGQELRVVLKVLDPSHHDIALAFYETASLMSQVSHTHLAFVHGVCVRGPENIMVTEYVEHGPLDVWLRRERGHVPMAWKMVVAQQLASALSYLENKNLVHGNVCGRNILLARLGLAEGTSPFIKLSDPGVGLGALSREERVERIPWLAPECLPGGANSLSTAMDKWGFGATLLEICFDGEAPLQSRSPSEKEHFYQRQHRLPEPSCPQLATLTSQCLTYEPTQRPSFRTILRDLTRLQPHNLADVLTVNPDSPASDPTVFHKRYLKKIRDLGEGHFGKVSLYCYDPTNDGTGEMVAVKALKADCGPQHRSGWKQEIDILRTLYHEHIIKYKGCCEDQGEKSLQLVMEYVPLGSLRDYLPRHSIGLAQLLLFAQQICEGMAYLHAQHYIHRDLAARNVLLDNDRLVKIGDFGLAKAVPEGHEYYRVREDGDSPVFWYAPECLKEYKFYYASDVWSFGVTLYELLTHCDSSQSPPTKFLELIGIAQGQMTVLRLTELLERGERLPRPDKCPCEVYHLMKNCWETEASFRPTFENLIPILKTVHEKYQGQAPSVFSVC
JAK2, sequence (O60674 whole entry): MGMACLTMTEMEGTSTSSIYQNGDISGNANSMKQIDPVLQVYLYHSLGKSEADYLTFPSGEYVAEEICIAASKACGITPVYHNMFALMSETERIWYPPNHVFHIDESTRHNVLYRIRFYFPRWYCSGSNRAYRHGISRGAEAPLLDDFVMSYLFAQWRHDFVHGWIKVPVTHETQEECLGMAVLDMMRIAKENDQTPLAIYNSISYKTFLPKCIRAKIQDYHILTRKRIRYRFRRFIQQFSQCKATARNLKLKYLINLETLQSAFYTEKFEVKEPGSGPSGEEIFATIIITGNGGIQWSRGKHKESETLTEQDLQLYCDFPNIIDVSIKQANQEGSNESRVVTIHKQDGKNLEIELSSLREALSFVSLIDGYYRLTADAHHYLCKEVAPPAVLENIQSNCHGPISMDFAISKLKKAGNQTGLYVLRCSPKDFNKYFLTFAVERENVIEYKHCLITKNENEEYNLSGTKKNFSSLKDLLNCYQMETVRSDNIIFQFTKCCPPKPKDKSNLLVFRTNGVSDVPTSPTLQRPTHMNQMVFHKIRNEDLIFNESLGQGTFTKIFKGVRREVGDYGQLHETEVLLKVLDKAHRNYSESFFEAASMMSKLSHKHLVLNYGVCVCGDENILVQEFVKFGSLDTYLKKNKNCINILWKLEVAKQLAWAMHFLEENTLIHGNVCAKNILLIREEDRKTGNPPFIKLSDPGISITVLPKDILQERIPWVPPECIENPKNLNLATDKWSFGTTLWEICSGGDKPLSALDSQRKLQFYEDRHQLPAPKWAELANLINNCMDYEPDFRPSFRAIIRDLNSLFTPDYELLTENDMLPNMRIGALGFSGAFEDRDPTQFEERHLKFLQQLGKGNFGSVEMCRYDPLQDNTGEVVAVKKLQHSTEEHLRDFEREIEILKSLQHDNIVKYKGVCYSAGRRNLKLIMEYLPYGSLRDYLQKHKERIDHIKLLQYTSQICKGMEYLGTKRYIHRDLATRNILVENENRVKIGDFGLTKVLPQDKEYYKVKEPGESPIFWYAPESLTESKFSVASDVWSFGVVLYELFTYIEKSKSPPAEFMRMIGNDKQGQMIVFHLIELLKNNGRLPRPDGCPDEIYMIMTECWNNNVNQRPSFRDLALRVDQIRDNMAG

| SMILES | IC50 [1] [µM] | IC50 [2] [µM] | IC50 [3] [µM] | IC50 [4] [µM] |
| --- | --- | --- | --- | --- |
| CC1CCNC(=O)c2ccc(c([N+](=O)[O-])c2)-c2ccnc(n2)Nc2ccc(OCC3CCCOC3)c(c2)COC1 (centres unmarked) [Example 139, 8-methyl-1^2-nitro-4^4-((tetrahydro-2H-pyran-3-yl)methoxy)-6-oxa-3,11-diaza-2(4,2)-pyrimidina-1(1,4),4(1,3)-dibenzenacyclododecaphan-12-one] | 1 to 10 | 1 to 10 | > 10 | 0.101 to 1 |
| CC1(C)CCNC(=O)c2ccc(c(N)c2)-c2ccnc(n2)Nc2ccc(OC3CCCOC3)c(c2)COC1 (centres unmarked) [Example 168, 1^2-amino-8,8-dimethyl-4^4-((tetra-hydro-2H-pyran-3-yl)oxy)-6-oxa-3,11-diaza-2(4,2)-pyrimidina-1(1,4),4(1,3)-dibenzenacyclododecaphan-12-one] | 1 to 10 | > 10 | > 10 | 1 to 10 |
| O=C1NCCCCOCc2cccc(c2)Nc2nccc(n2)-c2ccc1cc2F [Example 12, 1^2-fluoro-6-oxa-3,11-diaza-2(4,2)-py-rimidina-1(1,4),4(1,3)-dibenzenacy-clododecaphan-12-one] | 0.101 to 1 | 0.101 to 1 | 1 to 10 | 0.011 to 0.1 |
| COc1cc(F)cc(Cl)c1COc1ccc2cc1COCCCCNC(=O)c1ccc(c(N)c1)-c1ccnc(n1)N2 [Example 195, 1^2-amino-4^4-((2-chloro-4-fluoro-6-methoxybenzyl)oxy)-6-oxa-3,11-diaza-2(4,2)-pyrimidina-1(1,4),4(1,3)-dibenzenacyclododecaphan-12-one] | 1 to 10 | 1 to 10 | 1 to 10 | 0.011 to 0.1 |
| O=C1NCCCCOCc2cc(ccc2OCC2Cc3ccccc3O2)Nc2nccc(n2)-c2ccc1cc2[N+](=O)[O-] (centres unmarked) [Example 154, 4^4-((2,3-dihydroxybenzofuran-2-yl)methoxy)-1^2-nitro-6-oxa-3,11-diaza-2(4,2)-pyrimidina-1(1,4),4(1,3)-dibenzenacyclododecaphan-12-one] | 1 to 10 | 1 to 10 | > 10 | 0.101 to 1 |
| COc1ccc2cc1COCCCCNC(=O)c1ccc(c(F)c1)-c1ccnc(n1)N2 [Example 15, 1^2-fluoro-4^4-methoxy-6-oxa-3,11-di-aza-2(4,2)-pyrimidina-1(1,4),4(1,3)-dibenzenacyclododecaphan-12-one] | 0.101 to 1 | 0.101 to 1 | 1 to 10 | 0.011 to 0.1 |
| Cc1cc2ccc1-c1nc(ncc1C)Nc1ccc(Cl)c(c1)COCCCCNC2=O [Example 35, 1^2,2^5-dimethyl-4^4-chloro-6-oxa-3,11-diaza-2(4,2)-pyrimidina-1(1,4),4(1,3)-dibenzenacyclododecaphan-12-one] | > 10 | > 10 | > 10 | 1 to 10 |
| O=C1NCCCCOCc2cc(ccc2N2CCSCC2)Nc2nccc(n2)-c2ccc1cc2[N+](=O)[O-] [Example 65, 1^2-nitro-4^4-thiomorpholin-6-oxa-3,11-diaza-2(4,2)-pyrimidina-1(1,4),4(1,3)-dibenzenacyclododecaphan-12-one] | 1 to 10 | 1 to 10 | 1 to 10 | 1 to 10 |
| Nc1cc2ccc1-c1ccnc(n1)Nc1cccc(c1)COCCCCNC2=O [Example 54, 1^2-amino-6-oxa-3,11-diaza-2(4,2)-py-rimidina-1(1,4),4(1,3)-dibenzena-cyclododecaphan-12-one] | 0.101 to 1 | 0.101 to 1 | 1 to 10 | 0.011 to 0.1 |
| O=C1NCCCCOCc2cc(cc(N3CCOCC3)c2)Nc2ncc(Cl)c(n2)-c2ccc1cc2F [Example 25] | 1 to 10 | 1 to 10 | 1 to 10 | 0.101 to 1 |
| O=C1NCCCCOCc2cc(ccc2OCc2ccccc2F)Nc2nccc(n2)-c2ccc1cc2[N+](=O)[O-] [Example 152, 4^4-((2-fluorobenzyl)oxy)-1^2-nitro-6-oxa-3,11-diaza-2(4,2)-pyrimidina-1(1,4),4(1,3)-dibenzenacyclodo-decaphan-12-one] | 1 to 10 | 1 to 10 | > 10 | 0.101 to 1 |
| Nc1cc2ccc1-c1ccnc(n1)Nc1ccc(N3CCSCC3)c(c1)COCCCCNC2=O [Example 66, 1^2-amino-4-thiomorpholin-6-oxa-3,11-diaza-2(4,2)-pyrimidina-1(1,4),4(1,3)-dibenzenacyclo-dodecaphan-12-one] | 0.011 to 0.1 | 0.101 to 1 | 0.101 to 1 | 0.011 to 0.1 |
| COc1cc(F)cc(C#N)c1COc1ccc2cc1COCCCCNC(=O)c1ccc(c(N)c1)-c1ccnc(n1)N2 [Example 194, 2-(((1^2-amino-12-oxo-6-oxo-3,11-diaza-2(4,2)-pyrimidina-1(1,4),4(1,3)-dibenzenacyclododecaphan-4^4-yl)oxy)methyl)-5-fluoro-3-methoxy-benzonitrile] | 0.101 to 1 | 1 to 10 | > 10 | 0.011 to 0.1 |
| O=C1NCCCCOCc2cc(ccc2O)Nc2nccc(n2)-c2ccc1cc2[N+](=O)[O-] [Example 81, 4^4-hydroxy-1-nitro-6-oxa-3,11-diaza-2(4,2)-pyrimidina-1(1,4),4(1,3)-di-benzenacyclododecaphan-12-one] | 1 to 10 | 1 to 10 | > 10 | 0.101 to 1 |
| COc1ccc2cc1COCCCCNC(=O)c1ccc(c(C)c1)-c1nc(ncc1C)N2 [Example 33, 1^2,2^5-dimethyl-4^4-methoxy-6-oxa-3,11-diaza-2(4,2)-pyrimidina-1(1,4),4(1,3)-dibenzenacyclododecaphan-12-one] | 1 to 10 | 1 to 10 | > 10 | 1 to 10 |
| Cc1cc2ccc1-c1ccnc(n1)Nc1ccc(N3CCCCC3)c(c1)COCCCCNC2=O [Example 42, 1^2-methyl-4^4-(piperidin-1-)-6-oxa-3,11-diaza-2(4,2)-pyrimidina-1(1,4),4(1,3)-dibenzenacyclododecaphan-12-one] | 0.101 to 1 | 1 to 10 | 0.101 to 1 | 0.011 to 0.1 |
| Nc1cc2ccc1-c1ccnc(n1)Nc1cc(cc(N3CCOCC3)c1)COCCCCNC2=O [Example 52, 1^2-amino-4^5-morpholin-6-oxa-3,11-diaza-2(4,2)-pyrimidina-1(1,4),4(1,3)-dibenzenacyclododecaphan-12-one] | 0.011 to 0.1 | 0.101 to 1 | 0.101 to 1 | < 0.01 |
